For 15 compounds, IC50 results are on record in patent publication US8153791B2, “Substituted pyrimidinyl oxime kinase inhibitors” (Janssen Pharmaceutica N.V., priority 2005, dated 2012).

Experiment [1] relates to HeLa cervical adenocarcinoma. Description: In vitro cell proliferation inhibition, HeLa. It counts as cell-based. As to conditions: Homo sapiens, read-out: HeLa IC50. An excerpt: (§1) The ability of a test compound to inhibit unregulated in vitro cell proliferation may be determined by measuring incorporation of ^14C-labelled thymidine into newly synthesized DNA within cell lines derived from carcinomas originating from several tissues. Accordingly, the effect of a test compound on proliferation of cells with a variety of phenotypes may be determined.
(§2) Carcinoma cell lines used include the HeLa cervical adenocarcinoma from the American Type Culture Collection (ATCC Cat. #CCL2), SK-OV-3 ovarian carcinoma (ATCC Cat. #HTB-77), MCF-7 breast carcinoma (ATCC Cat. #HTB-22), BT474 breast carcinoma (ATCC Cat. #HTB-20), SKBR3 breast carcinoma (ATCC Cat. #HTB-30), A431 epidermoid carcinoma (ATCC Cat. #CRL-1555) and NCI-N87 gastric carcinoma (ATCC Cat. #CRL-5822).
(§3) The carcinoma cells are trypsinized and counted. The cells (3000-8000 count) are added to each well of a 96-well CytoStar tissue culture treated scintillating microplate (Amersham #RPNQ0160) in complete medium (100 μL) and the plate is then incubated in complete medium for 24 hrs at 37° C. in an inert atmosphere containing 5% CO2.
(§4) Test compound (1 μL) in 100% DMSO is added to the plate test-wells with DMSO only added to control-wells. The plate is incubated in complete medium for a second 24 hr period at 37° C. in an atmosphere containing 5% CO2.
(§5) An aliquot of a solution of Methyl ^14C-thymidine (56 mC/mmol) (NEN #NEC568 or Amersham #CFA532) and complete medium (20 μL to provide 0.2 μCi/well) is then added to each well and the plate is incubated for a third 24 hr period at 37° C. in an atmosphere containing 5% CO2.
(§6) The plate contents are then discarded, the plate is washed twice with PBS (200 μL) and then PBS (200 μL) is added to each well. The plate is sealed and the degree of methyl ^14C-thymidine incorporation is quantified on a Packard Top Count.
(§7) Cell proliferation of the Hela cell line was measured using the ATP-Lite method as described in the ATP Lite Kit (Perkin-Elmer Kit Number 6106941) or the C^14 method as described above. Cell proliferation of the other cell lines was measured using the C^14 method.
(§8) The term “NT” means that the compound indicated was not tested in a particular cell line. The lack of such testing is not intended to imply a belief that the compound is not otherwise active in a particular cell line or any other cell line not tested.

The test system of experiment [2] is SK-OV-3 ovarian carcinoma. Description: In vitro cell proliferation inhibition, SK-OV-3. It counts as cell-based. Particulars: Homo sapiens; SK-OV-3 cells, 14C-thymidine incorporation.
Excerpt: as §1, §2, §3, §4, §5, §6, §7, §8
For orientation: Uptake of a labelled nucleoside into DNA is a usual measure of proliferation.

Experiment [3] relates to NCI-N87 gastric carcinoma. Description: In vitro cell proliferation inhibition, NCI-N87. It counts as cell-based. As to conditions: Homo sapiens.
Excerpt: as §1, §2, §3, §4, §5, §6, §7, §8

The test system of the next experiment is MCF-7 breast carcinoma. Description: In vitro cell proliferation inhibition, MCF-7. As to conditions: Homo sapiens, MCF7; MCF-7 cells, 14C-thymidine incorporation. It counts as cell-based.
Excerpt: as §1, §2, §3, §4, §5, §6, §7, §8

Another experiment deals with T1, HER-2 (Homo sapiens, UniProt P04626).
T1 construct: purchased Proqinase (Freiburg, Germany)
T1 sequence (P04626 679-1255): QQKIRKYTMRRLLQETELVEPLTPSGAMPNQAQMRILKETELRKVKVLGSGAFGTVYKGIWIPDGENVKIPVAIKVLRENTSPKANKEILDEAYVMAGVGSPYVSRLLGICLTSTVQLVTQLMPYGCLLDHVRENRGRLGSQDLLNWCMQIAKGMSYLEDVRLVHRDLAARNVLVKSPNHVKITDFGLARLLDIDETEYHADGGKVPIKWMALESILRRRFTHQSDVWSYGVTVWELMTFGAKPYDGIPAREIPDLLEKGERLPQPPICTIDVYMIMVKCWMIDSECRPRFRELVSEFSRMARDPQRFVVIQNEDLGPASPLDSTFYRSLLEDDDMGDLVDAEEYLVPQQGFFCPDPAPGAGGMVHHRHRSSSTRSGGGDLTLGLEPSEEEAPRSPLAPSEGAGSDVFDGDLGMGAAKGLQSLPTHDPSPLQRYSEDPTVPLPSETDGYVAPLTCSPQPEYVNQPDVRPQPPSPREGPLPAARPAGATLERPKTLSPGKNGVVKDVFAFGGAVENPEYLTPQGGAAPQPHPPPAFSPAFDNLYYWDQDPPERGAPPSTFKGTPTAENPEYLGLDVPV
Description: HER-2 Kinase Assay.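 Note: HER2 kinase reaction read by scintillation counting, inhibition scaled between maximum and minimum signals set on each plate, IC50 from inhibition against log concentration.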 It counts as biochemical. As to conditions: read-out: HER2 IC50.

For experiment [4], the system named is A431 epidermoid carcinoma. Description: In vitro cell proliferation inhibition, A431. It counts as cell-based. As to conditions: Homo sapiens.
Excerpt: as §1, §2, §3, §4, §5, §6, §7, §8

A further experiment has as its system SKBR3 breast carcinoma. The experiment can be described thus: In vitro cell proliferation inhibition, SKBR3. As to conditions: Homo sapiens. It counts as cell-based.
Excerpt: as §1, §2, §3, §4, §5, §6, §7, §8

For the next experiment, the system named is BT474 breast carcinoma. Description: In vitro cell proliferation inhibition, BT474. It counts as cell-based. Particulars: Homo sapiens.
Excerpt: as §1, §2, §3, §4, §5, §6, §7, §8

The next experiment has as its target T2, EGFR (Homo sapiens, UniProt P00533).
T2 construct: The intracellular portion of EGFR started at nucleotide 2189 (corresponding to amino acid 667) and ended at the termination codon; made in house; host or cells: Sf9 insect cells (baculovirus)
Description: EGFR Kinase Assay.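 Note: recombinant GST-tagged EGFR expressed in Sf9 cells, phosphorylating biotinylated polyGluTyr with γ-33P ATP on Streptavidin Flashplates, 1 h at 30 °C, scintillation counting, inhibition relative to plate maximum and minimum signals.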 It counts as biochemical.

[5] abbreviates: HeLa cell line, ATP-Lite method or C14 thymidine method.
The mark [6] stands for this setting: NCI-N87, N87 cells, 14C-thymidine incorporation, read-out: IC50 N87.
The mark [7] stands for this setting: A-431, A431 cells, 14C-thymidine incorporation, read-out: IC50 A431.
Setting [8] is: SK-BR-3, SKBR3 cells, 14C-thymidine incorporation, read-out: IC50 SKBR3.
Setting [9] is: BT-474, BT474 cells, 14C-thymidine incorporation, read-out: IC50 BT474.

Like-named read-outs stand apart in the source and are kept apart here.

T2 sequence (P00533 669-1210 limits assumed): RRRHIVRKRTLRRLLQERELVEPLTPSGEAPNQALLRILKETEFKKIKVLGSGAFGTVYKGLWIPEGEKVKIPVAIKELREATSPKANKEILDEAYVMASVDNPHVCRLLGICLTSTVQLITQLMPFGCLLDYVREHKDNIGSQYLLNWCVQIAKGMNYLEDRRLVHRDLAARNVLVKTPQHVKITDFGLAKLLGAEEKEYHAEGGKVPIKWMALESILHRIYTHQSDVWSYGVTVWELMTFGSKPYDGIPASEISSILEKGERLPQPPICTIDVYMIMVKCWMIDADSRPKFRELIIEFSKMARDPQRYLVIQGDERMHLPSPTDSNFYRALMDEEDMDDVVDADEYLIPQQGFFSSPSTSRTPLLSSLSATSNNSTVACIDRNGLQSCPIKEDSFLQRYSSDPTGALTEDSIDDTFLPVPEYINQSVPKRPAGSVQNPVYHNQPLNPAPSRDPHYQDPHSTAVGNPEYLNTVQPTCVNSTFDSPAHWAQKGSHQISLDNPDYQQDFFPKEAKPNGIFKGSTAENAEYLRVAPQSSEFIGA

Take `CO/N=C/c1c(N)ncnc1Nc1ccc(OCc2ccccc2)c(Cl)c1` [Cpd 9, (5E)-4-amino-6-(4-benzyloxy-3-chloro-phenylamino)-pyrimidine-5-carbaldehyde O-methyl-oxime]: the IC50 (as a rule, the midpoint of a concentration-inhibition curve) in [1] (setting [5]) was 35000 nM; in [2], 100000 nM; in experiment [3] (setting [6]) it was 700 nM; with MCF-7 breast carcinoma, 86600 nM.
`Nc1ncnc(Nc2ccc3c(cnn3Cc3cccc(F)c3)c2)c1/C=N/OCCN1CCOCC1` [Cpd 19, (5E)-4-amino-6-[1-(3-fluoro-benzyl)-1H-indazol-5-ylamino]-pyrimidine-5-carbaldehyde O-(2-morpholin-4-yl-ethyl)-oxime]: the IC50 in experiment [1] (setting [5]) was determined as 10000 nM; on HER-2, 50 nM; in experiment [2], 19100 nM; in experiment [4] (setting [7]), 1100 nM; in experiment [3] (setting [6]) it was 40 nM; in the experiment with MCF-7 breast carcinoma, 2500 nM. Moreover, the concentration for half-maximal inhibition (IC50) came to 100 nM in the experiment with SKBR3 breast carcinoma (setting [8]), 30 nM with BT474 breast carcinoma (setting [9]) and 20 nM at EGFR.
On to `CO/N=C/c1c(N)ncnc1Nc1ccc2c(ccn2Cc2cccc(F)c2)c1` [Cpd 34, (5E)-4-amino-6-[1-(3-fluoro-benzyl)-1H-indol-5-ylamino]-pyrimidine-5-carbaldehyde O-methyl-oxime], for which the IC50 was found to be 3500 nM in experiment [1] (setting [5]), 3200 nM in experiment [2], 200 nM in [3] (setting [6]) and 3800 nM with MCF-7 breast carcinoma.
Turning to `Nc1ncnc(Nc2ccc3c(cnn3Cc3cccc(F)c3)c2)c1/C=N/OCc1ccccc1` [Cpd 46, (5E)-4-amino-6-[1-(3-fluoro-benzyl)-1H-indazol-5-ylamino]-pyrimidine-5-carbaldehyde O-benzyl-oxime], the half-maximal inhibitory concentration (IC50) in experiment [1] (setting [5]) is 100000 nM; in experiment [4] (setting [7]), 100000 nM; in experiment [3] (setting [6]), 10000 nM; with SKBR3 breast carcinoma (setting [8]), 300 nM; in the experiment with BT474 breast carcinoma (setting [9]), 100 nM.
Consider `CO/N=C/c1c(N)ncnc1Nc1ccc2[nH]c(Cc3cccc(F)c3)nc2c1` [Cpd 60, (5E)-4-amino-6-[2-(3-fluoro-benzyl)-1H-benzoimidazol-5-ylamino]-pyrimidine-5-carbaldehyde O-methyl-oxime], for which the 50% inhibitory concentration (IC50) in experiment [1] (setting [5]) worked out at 10000 nM; in [2] it was 10000 nM; in [3] (setting [6]), 600 nM; in the experiment on MCF-7 breast carcinoma, 10000 nM.
As to `CN(C)CCCO/N=C/c1c(N)ncnc1Nc1ccc2c(cnn2Cc2cccc(F)c2)c1` [Cpd 70, (5E)-4-amino-6-[1-(3-fluoro-benzyl)-1H-indazol-5-ylamino]-pyrimidine-5-carbaldehyde O-(3-dimethylamino-propyl)-oxime], the concentration for half-maximal inhibition (IC50) is 10000 nM in experiment [1] (HeLa); 20 nM at HER-2; 14200 nM in experiment [4] (A-431, read-out: IC50 A431); 300 nM in experiment [3] (NCI-N87, read-out: IC50 N87); 400 nM in the experiment on SKBR3 breast carcinoma (SK-BR-3, read-out: IC50 SKBR3); 100 nM with BT474 breast carcinoma (BT-474, read-out: IC50 BT474). Further, on EGFR, it took 20 nM to reach half-maximal inhibition (IC50).
Turning to `Nc1ncnc(Nc2ccc(OCc3cccc(F)c3)c(Cl)c2)c1/C=N/OCCCO` [Cpd 75, (5E)-4-amino-6-[3-chloro-4-(3-fluoro-benzyloxy)-phenylamino]-pyrimidine-5-carbaldehyde O-(3-hydroxy-propyl)-oxime], the IC50 in [1] (setting [5]) stood at 40100 nM; on HER-2, 9 nM; in [2], 10000 nM; in [3] (setting [6]), 1 nM; with MCF-7 breast carcinoma, 30700 nM; on EGFR, 8 nM.
On to `Nc1ncnc(Nc2ccc(OCc3ccccc3)c(Cl)c2)c1/C=N/OCCCO` [Cpd 76, (5E)-4-amino-6-(4-benzyloxy-3-chloro-phenylamino)-pyrimidine-5-carbaldehyde O-(3-hydroxy-propyl)-oxime], for which the concentration for half-maximal inhibition (IC50) was 59400 nM in [1] (setting [5]); 30 nM on HER-2; 24100 nM in experiment [2]; 1800 nM in experiment [4] (setting [7]); 300 nM in experiment [3] (setting [6]); 10000 nM with MCF-7 breast carcinoma. Moreover, the 50% inhibitory concentration (IC50) in the experiment with SKBR3 breast carcinoma (setting [8]) was 300 nM; with BT474 breast carcinoma (setting [9]), 200 nM; at EGFR, 10 nM.
As for `Nc1ncnc(Nc2ccc3c(cnn3Cc3cccc(F)c3)c2)c1/C=N/OCCCN1CCOCC1` [Cpd 87, (5E)-4-amino-6-[1-(3-fluoro-benzyl)-1H-indazol-5-ylamino]-pyrimidine-5-carbaldehyde O-(3-morpholin-4-yl-propyl)-oxime], the half-maximal inhibitory concentration (IC50) was found to be 4900 nM in [1] (setting [5]); 70 nM at HER-2; 3600 nM in experiment [4] (setting [7]); 300 nM in [3] (setting [6]); 500 nM with SKBR3 breast carcinoma (setting [8]); 300 nM with BT474 breast carcinoma (setting [9]). At EGFR, this compound yielded a concentration for half-maximal inhibition (IC50) of 30 nM.
On to `Nc1ncnc(Nc2ccc3c(ccn3Cc3cccc(F)c3)c2)c1/C=N/OCCCO` [Cpd 91, (5E)-4-amino-6-[1-(3-fluoro-benzyl)-1H-indol-5-ylamino]-pyrimidine-5-carbaldehyde O-(3-hydroxy-propyl)-oxime], for which the IC50 in experiment [1] (setting [5]) amounted to 9400 nM; on HER-2, 30 nM; in [2], 5400 nM; in experiment [4] (setting [7]), 1300 nM; in experiment [3] (setting [6]), 200 nM; in the experiment on MCF-7 breast carcinoma it was 10000 nM. The IC50 came out at 300 nM in the experiment with SKBR3 breast carcinoma (setting [8]), 200 nM in the experiment on BT474 breast carcinoma (setting [9]) and 7 nM at EGFR.
In the case of `Nc1ncnc(Nc2ccc3c(cnn3Cc3cccc(F)c3)c2)c1/C=N/OCCCN1CCCCC1` [Cpd 92, (5E)-4-amino-6-[1-(3-fluoro-benzyl)-1H-indazol-5-ylamino]-pyrimidine-5-carbaldehyde O-(3-piperidin-1-yl-propyl)-oxime], the IC50 in experiment [1] (setting [5]) was 4700 nM; at HER-2, 30 nM; in experiment [4] (setting [7]) it was 3100 nM; in experiment [3] (setting [6]), 200 nM; with SKBR3 breast carcinoma (setting [8]), 400 nM; in the experiment with BT474 breast carcinoma (setting [9]) it was 200 nM. Also, the 50% inhibitory concentration (IC50) against EGFR was determined as 50 nM.
With `Nc1ncnc(Nc2ccc(OCc3cc(F)cc(F)c3)c(Cl)c2)c1/C=N/OCCN1CCOCC1` [Cpd 99, (5E)-4-amino-6-[3-chloro-4-(3,5-difluoro-benzyloxy)-phenylamino]-pyrimidine-5-carbaldehyde O-(2-morpholin-4-yl-ethyl)-oxime], the IC50 amounted to 100000 nM in experiment [1] (setting [5]); 200 nM on HER-2; 100000 nM in experiment [4] (setting [7]); 100000 nM in experiment [3] (setting [6]); 100000 nM in the experiment on SKBR3 breast carcinoma (setting [8]); 10000 nM in the experiment on BT474 breast carcinoma (setting [9]). Besides, at EGFR, it took 70 nM to reach half-maximal inhibition (IC50).
For `Nc1ncnc(Nc2ccc3c(ccn3Cc3cccc(F)c3)c2)c1/C=N/OCCN1CCCCC1` [Cpd 102, (5E)-4-amino-6-[1-(3-fluoro-benzyl)-1H-indol-5-ylamino]-pyrimidine-5-carbaldehyde O-(2-piperidin-1-yl-ethyl)-oxime], the IC50 amounted to 1400 nM in [1] (setting [5]); 140 nM on HER-2; 1 nM in [4] (setting [7]); 200 nM in experiment [3] (setting [6]); 700 nM in the experiment on SKBR3 breast carcinoma (setting [8]); 900 nM in the experiment on BT474 breast carcinoma (setting [9]). The same compound returned a 50% inhibitory concentration (IC50) at EGFR of 40 nM.
For `Nc1ncnc(Nc2ccc(F)c(Cl)c2)c1/C=N/OCCN1CCOCC1` [Cpd 108], the IC50 in [1] (setting [5]) came out at 10000 nM; on HER-2, 1100 nM; against EGFR it was 200 nM.
Take `N#Cc1c(N)ncnc1Nc1ccc(OCc2ccccc2)c(Cl)c1` [Cpd 118, 4-amino-6-(4-benzyloxy-3-chloro-phenylamino)-pyrimidine-5-carbonitrile]: the IC50 in experiment [1] (setting [5]) came out at 100000 nM; at HER-2 it was 100 nM; in experiment [4] (setting [7]), 100000 nM; in [3] (setting [6]) it was 100000 nM; with SKBR3 breast carcinoma (setting [8]), 100000 nM; in the experiment on BT474 breast carcinoma (setting [9]), 100000 nM. The same compound returned an IC50 against EGFR of 30 nM.
